Data reported in the supplement of paper PMC13380429.

Experiments:
Conditions in all cases: 72 h
[1] = test system: U2OS; assay: relative viability EC50 (midpoint between 100% and the lowest measured viability); higher = less toxic
[2] = test system: Calu-3; assay: as above
[3] = test system: HepG2; assay: as above
[4] = test system: Caco-2; assay: as above
[5] = test system: Vero E6; assay: as above
[6] = test system: U2OS; assay: drug sensitivity score (DSS) for viability; higher = more toxic; extreme values may be limits of the assay
[7] = test system: Calu-3; assay: as above
[8] = test system: HepG2; assay: as above
[9] = test system: Caco-2; assay: as above
[10] = test system: Vero E6; assay: as above
[11] = test system: U2OS; assay: cell viability relative to DMSO; higher = less toxic
[12] = test system: Calu-3; assay: as above
[13] = test system: HepG2; assay: as above
[14] = test system: Caco-2; assay: as above
[15] = test system: Vero E6; assay: as above

Row | SMILES | relative viability EC50 [1] | relative viability EC50 [2] | relative viability EC50 [3] | relative viability EC50 [4] | relative viability EC50 [5] | drug sensitivity score [6] | drug sensitivity score [7] | drug sensitivity score [8] | drug sensitivity score [9] | drug sensitivity score [10] | cell viability ([11]; 1 nM) | cell viability ([11]; 10 nM) | cell viability ([11]; 100 nM) | cell viability ([11]; 1000 nM) | cell viability ([11]; 10000 nM) | cell viability ([12]; 1 nM) | cell viability ([12]; 10 nM) | cell viability ([12]; 100 nM) | cell viability ([12]; 1000 nM) | cell viability ([12]; 10000 nM) | cell viability ([13]; 1 nM) | cell viability ([13]; 10 nM) | cell viability ([13]; 100 nM) | cell viability ([13]; 1000 nM) | cell viability ([13]; 10000 nM) | cell viability ([14]; 1 nM) | cell viability ([14]; 10 nM) | cell viability ([14]; 100 nM) | cell viability ([14]; 1000 nM) | cell viability ([14]; 10000 nM) | cell viability ([15]; 1 nM) | cell viability ([15]; 10 nM) | cell viability ([15]; 100 nM) | cell viability ([15]; 1000 nM) | cell viability ([15]; 10000 nM)
1 | CO[C@H](C(=O)[C@@H](O)[C@@H](C)O)[C@@H]1Cc2cc3cc(O[C@H]4C[C@@H](O[C@H]5C[C@@H](O)[C@H](O)[C@@H](C)O5)[C@@H](O)[C@@H](C)O4)c(C)c(O)c3c(O)c2C(=O)[C@H]1O[C@H]1C[C@@H](O[C@H]2C[C@@H](O[C@H]3C[C@](C)(O)[C@H](O)[C@@H](C)O3)[C@H](O)[C@@H](C)O2)[C@H](O)[C@@H](C)O1 [plicamycin] | 0.036 µM | 0.0509 µM | 0.0321 µM | 0.0245 µM | 1.46 µM | 29.5 | 20.8 | 29.1 | 18.9 | 9.2 | 96.4% | 100% | 5.9% | 1% | 1.5% | 107% | 88.4% | 48.5% | 24% | 28.1% | 107% | 99.9% | 5.2% | 4.4% | 6.1% | 101% | 95% | 42.4% | 58.1% | 65.5% | 92.6% | 105% | 95.6% | 73.5% | 4.9%
2 | N[C@@H](Cc1ccc(O)cc1)C(=O)O [plovamer-acetate] | > 10 µM | > 10 µM | > 10 µM | > 10 µM | > 10 µM | 0 | 0 | 0 | 4.2 | 0 | 99.1% | 94.8% | 102% | 93.3% | 97.6% | 97.9% | 98.5% | 105% | 104% | 102% | 87.2% | 94.4% | 93% | 90.1% | 80.1% | 119% | 83.9% | 84.4% | 90.7% | 92.1% | 106% | 102% | 96.3% | 104% | 95.5%
3 | COCCCN1CCC(NC(=O)c2cc(Cl)c(N)c3c2OCC3)CC1 [prucalopride] | > 10 µM | > 10 µM | > 10 µM | > 10 µM | > 10 µM | 0 | 0 | 0 | 0 | 0 | 96.9% | 97.7% | 97.7% | 97.9% | 102% | 104% | 97% | 90.1% | 97.6% | 94.9% | 96.7% | 102% | 96.5% | 91% | 96.5% | 102% | 82.8% | 102% | 102% | 101% | 106% | 103% | 105% | 101% | 95%
4 | CCN1CCC[C@H]1CNC(=O)c1c(O)c(Cl)cc(Cl)c1OC [raclopride] | > 10 µM | > 10 µM | > 10 µM | > 10 µM | > 10 µM | 0 | 0 | 0 | 0 | 0 | 101% | 95.2% | 96.6% | 95% | 99.9% | 97.9% | 94% | 92.4% | 96.7% | 97.4% | 99.6% | 104% | 93.7% | 101% | 93.1% | 91.2% | 88.3% | 93.5% | 84% | 96.6% | 101% | 100% | 94.7% | 93% | 100%
5 | COC(=O)CC[C@@H]1N=C(c2ccccn2)c2cc(Br)ccc2-n2c(C)cnc21 [remimazolam] | > 10 µM | > 10 µM | > 10 µM | > 10 µM | > 10 µM | 0 | 0 | 0 | 0 | 0 | 96.4% | 105% | 97.7% | 98% | 97.8% | 104% | 94.1% | 111% | 90% | 95.2% | 97.1% | 83.5% | 103% | 100% | 108% | 95.2% | 101% | 95.3% | 99.2% | 91.7% | 103% | 96.5% | 99.3% | 96% | 99.8%
6 | NC(=O)c1ncn([C@@H]2O[C@H](CO)[C@@H](O)[C@H]2O)n1 [ribavirin] | > 10 µM | > 10 µM | > 10 µM | > 10 µM | > 10 µM | 0 | 0.3 | 0 | 0.2 | 0 | 92% | 93.8% | 99.5% | 95.9% | 113% | 104% | 108% | 111% | 88.6% | 92.9% | 95.7% | 104% | 99.8% | 121% | 86.7% | 109% | 97.6% | 108% | 113% | 82.9% | 101% | 101% | 98.5% | 104% | 104%
7 | Cc1ccc(NC2=CC(=O)c3sc(C)nc3C2=O)cc1 [ryuvidine] | 3.12 µM | 3.29 µM | 3.02 µM | 1.64 µM | 2.84 µM | 5.7 | 5.2 | 5.3 | 9 | 5.2 | 102% | 97.3% | 104% | 99.3% | 0% | 115% | 95.8% | 109% | 102% | 2.7% | 95.4% | 106% | 97.9% | 98.1% | 8.5% | 94.2% | 91.8% | 92.7% | 77.9% | 0.9% | 100% | 97.7% | 97.4% | 96.4% | 16.2%
8 | C=C1/C(=C\C=C2/CCC[C@]3(C)[C@@H]([C@H](C)/C=C/C=C/C(O)(CC)CC)CC[C@@H]23)C[C@@H](O)C[C@@H]1O [seocalcitol] | > 10 µM | > 10 µM | > 10 µM | > 10 µM | > 10 µM | 0 | 0 | 0 | 0 | 0 | 99.9% | 95.5% | 105% | 96.5% | 89.6% | 107% | 102% | 99.2% | 95.7% | 94.9% | 104% | 97.3% | 99.3% | 112% | 99.4% | 98.5% | 87.2% | 97.4% | 98.5% | 97.4% | 96% | 93.5% | 88.7% | 96.6% | 96.7%
9 | CCCC(=O)O [sodium-butyrate] | > 10 µM | > 10 µM | > 10 µM | > 10 µM | > 10 µM | 0 | 0 | 0 | 0 | 0 | 104% | 102% | 98.6% | 106% | 96.5% | 103% | 95.8% | 96.2% | 97.7% | 102% | 109% | 91.8% | 102% | 91.2% | 99.1% | 104% | 95.8% | 100% | 99.9% | 98.9% | 109% | 101% | 102% | 99.4% | 100%
10 | COc1ccc(NS(=O)(=O)c2ccc(N)cc2)nn1 [sulfamethoxypyridazine] | > 10 µM | > 10 µM | > 10 µM | > 10 µM | > 10 µM | 0 | 0 | 0 | 0 | 0 | 99.9% | 94.3% | 97.4% | 101% | 99.7% | 93.3% | 93.5% | 100% | 97.4% | 95.6% | 99.7% | 114% | 110% | 97.2% | 98.8% | 97.9% | 99.8% | 94.8% | 101% | 98.2% | 103% | 100% | 97.1% | 98.6% | 104%
11 | Nc1ccc(S(N)(=O)=O)cc1 [sulfanilamide] | > 10 µM | > 10 µM | > 10 µM | > 10 µM | > 10 µM | 0 | 0 | 0 | 0 | 0 | 98.8% | 97% | 106% | 100% | 103% | 95% | 97.2% | 106% | 90.7% | 102% | 96.8% | 104% | 95.1% | 109% | 103% | 85.8% | 59.8% | 84.2% | 81.1% | 113% | 99.8% | 94.2% | 83.1% | 105% | 117%
